# From ChEMBL document CHEMBL5370610, “Urotensin II Receptor Modulation with 1,3,4-Benzotriazepin-2-one Tetrapeptide Mimics” (J Med Chem, 2023)
# Active and inactive are the calls of the source. The rule behind the calls is not given here.
# Legend:
# Aorta [1] = assay: Ex vivo modulatory effect on URP-induced contractile activity in Sprague-Dawley rat aortic ring (reference value: 8.06 +/- 0.27); assay type: functional, tissue-based
# [2] = Agonist activity at RLucII-tagged Galpha-i (unknown origin) expressed in HEK293 cells co-expressing human UT/GFP10-tagged G-gamma assessed as activation of Galpha-i by BRET assay; assay type: cell-based
# HEK293 [3] = assay: Agonist activity at RLucII-tagged Galpha-13 (unknown origin) expressed in HEK293 cells co-expressing human UT/GFP10-tagged G-gamma assessed as activation of Galpha-13 at 10^-5 M by BRET assay relative to hUII; assay type: cell-based; conditions: filed as agonist, dose 1.0 10^-5M
# Beta-arrestin-1 [4] = target: T1, Beta-arrestin-1 (Homo sapiens, UniProt P49407); assay: Agonist activity at RLucII/GFP10-tagged beta-arrestin-1 (unknown origin) recruitment expressed in HEK293 cells co-expressing human UT assessed as beta-arrestin recruitment by BRET assay; assay type: cell-based
# Aorta [5] = assay: Ex vivo modulatory effect on hUII-induced contractile activity in Sprague-Dawley rat aortic ring at 10^-6 M pretreated for 30 mins followed by hUII addition (reference value: 100 +/- 9 %); assay type: functional; conditions: 0.5 h, dose 1 10^-6M
# [6] = Agonist activity at RLucII-tagged Galpha-13 (unknown origin) expressed in HEK293 cells co-expressing human UT/GFP10-tagged G-gamma assessed as activation of Galpha-13 by BRET assay; assay type: cell-based
# Aorta [7] = assay: Ex vivo modulatory effect on URP-induced contractile activity in Sprague-Dawley rat aortic ring at 10^-6 M pretreated for 30 mins followed by URP addition (reference value: 100 +/- 8 %); assay type: functional; conditions: 0.5 h, dose 1 10^-6M
# [8] = target: T2, Guanine nucleotide-binding protein G(q) subunit alpha (Homo sapiens) (UniProt P50148); assay: Agonist activity at RLucII-tagged Galpha-q (unknown origin) expressed in HEK293 cells co-expressing human UT/GFP10-tagged G-gamma assessed as activation of Galpha-q at 10^-5 M by BRET assay relative to hUII; assay type: cell-based; conditions: dose 1.0 10^-5M
# T2 sequence (whole entry): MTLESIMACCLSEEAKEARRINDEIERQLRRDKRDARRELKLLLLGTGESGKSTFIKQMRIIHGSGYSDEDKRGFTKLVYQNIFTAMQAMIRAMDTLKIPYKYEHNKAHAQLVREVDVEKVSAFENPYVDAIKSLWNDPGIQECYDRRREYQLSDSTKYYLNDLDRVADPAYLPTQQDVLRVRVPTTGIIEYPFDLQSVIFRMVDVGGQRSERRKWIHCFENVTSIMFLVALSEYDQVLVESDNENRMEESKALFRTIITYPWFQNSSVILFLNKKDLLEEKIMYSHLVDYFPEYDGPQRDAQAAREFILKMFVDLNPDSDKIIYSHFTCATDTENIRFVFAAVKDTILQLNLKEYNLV
# Beta-arrestin-1 [9] = target: T1, Beta-arrestin-1; assay: Agonist activity at RLucII/GFP10-tagged beta-arrestin-1 (unknown origin) expressed in HEK293 cells co-expressing human UT assessed as beta-arrestin recruitment at 10^-5 M by BRET assay relative to hUII; assay type: cell-based; conditions: filed as agonist, dose 1.0 10^-5M
# [10] = target: T3, Guanine nucleotide-binding protein G(q) subunit alpha (Homo sapiens, UniProt P50148); assay: Agonist activity at RLucII-tagged Galpha-q (unknown origin) expressed in HEK293 cells co-expressing human UT/GFP10-tagged G-gamma assessed as activation of Galpha-q by BRET assay; assay type: cell-based
# T3 sequence (P50148 whole entry): T2 sequence (whole entry)
# HEK293 [11] = assay: Agonist activity at RLucII-tagged Galpha-i (unknown origin) expressed in HEK293 cells co-expressing human UT/GFP10-tagged G-gamma assessed as activation of Galpha-i at 10^-5 M by BRET assay relative to hUII; assay type: cell-based; conditions: dose 1.0 10^-5M
# Aorta [12] = assay: Ex vivo modulatory effect on hUII-induced contractile activity in Sprague-Dawley rat aortic ring (reference value: 8.37 +/- 0.08); assay type: functional, tissue-based
# [13] = target: T2, Guanine nucleotide-binding protein G(q) subunit alpha (Homo sapiens); assay: Antagonist activity at URP-activated RLucII-tagged Galpha-q (unknown origin) expressed in HEK293 cells co-expressing human UT/GFP10-tagged G-gamma at 10^-6 M by BRET assay (reference value: 100 +/- 4 %); assay type: cell-based; conditions: filed as antagonist, dose 1.0 10^-6M
# HEK293 [14] = assay: Agonist activity at RLucII-tagged Galpha-i (unknown origin) expressed in HEK293 cells co-expressing human UT/GFP10-tagged G-gamma assessed as activation of Galpha-i at 10^-5 M by BRET assay; assay type: cell-based; conditions: dose 1.0 10^-5M
# HEK293 [15] = assay: Antagonist activity at hUII-activated RLucII-tagged Galpha-q (unknown origin) expressed in HEK293 cells co-expressing human UT/GFP10-tagged G-gamma at 10^-6 M by BRET assay (reference value: 100 +/- 4 %); assay type: cell-based; conditions: filed as antagonist, dose 1.0 10^-6M
# HEK293 [16] = assay: Antagonist activity at URP-activated RLucII-tagged Galpha-i (unknown origin) expressed in HEK293 cells co-expressing human UT/GFP10-tagged G-gamma at 10^-6 M by BRET assay (reference value: 100 +/- 7 %); assay type: cell-based; conditions: filed as antagonist, dose 1.0 10^-6M
# [17] = target: T2, Guanine nucleotide-binding protein G(q) subunit alpha (Homo sapiens); assay: Agonist activity at RLucII-tagged Galpha-q (unknown origin) expressed in HEK293 cells co-expressing human UT/GFP10-tagged G-gamma assessed as activation of Galpha-q at 10^-5 M by BRET assay; assay type: cell-based; conditions: dose 1.0 10^-5M
# [18] = target: T3, Guanine nucleotide-binding protein G(q) subunit alpha; assay: Antagonist activity at URP-activated RLucII-tagged Galpha-q (unknown origin) expressed in HEK293 cells co-expressing human UT/GFP10-tagged G-gamma by BRET assay (reference value: 7.33 +/- 0.10); assay type: cell-based
# [19] = target: T3, Guanine nucleotide-binding protein G(q) subunit alpha; assay: Antagonist activity at hUII-activated RLucII-tagged Galpha-q (unknown origin) expressed in HEK293 cells co-expressing human UT/GFP10-tagged G-gamma by BRET assay (reference value: 8.26 +/- 0.09); assay type: cell-based
# [20] = Antagonist activity at URP-activated RLucII-tagged Galpha-i (unknown origin) expressed in HEK293 cells co-expressing human UT/GFP10-tagged G-gamma by BRET assay (reference value: 7.10 +/- 0.19); assay type: cell-based
# [21] = Antagonist activity at hUII-activated RLucII-tagged Galpha-i (unknown origin) expressed in HEK293 cells co-expressing human UT/GFP10-tagged G-gamma by BRET assay (reference value: 7.41 +/- 0.15); assay type: cell-based
# HEK293 [22] = assay: Antagonist activity at hUII-activated RLucII-tagged Galpha-i (unknown origin) expressed in HEK293 cells co-expressing human UT/GFP10-tagged G-gamma at 10^-6 M by BRET assay (reference value: 100 +/- 5 %); assay type: cell-based; conditions: filed as antagonist, dose 1.0 10^-6M
# T1 sequence (P49407 whole entry): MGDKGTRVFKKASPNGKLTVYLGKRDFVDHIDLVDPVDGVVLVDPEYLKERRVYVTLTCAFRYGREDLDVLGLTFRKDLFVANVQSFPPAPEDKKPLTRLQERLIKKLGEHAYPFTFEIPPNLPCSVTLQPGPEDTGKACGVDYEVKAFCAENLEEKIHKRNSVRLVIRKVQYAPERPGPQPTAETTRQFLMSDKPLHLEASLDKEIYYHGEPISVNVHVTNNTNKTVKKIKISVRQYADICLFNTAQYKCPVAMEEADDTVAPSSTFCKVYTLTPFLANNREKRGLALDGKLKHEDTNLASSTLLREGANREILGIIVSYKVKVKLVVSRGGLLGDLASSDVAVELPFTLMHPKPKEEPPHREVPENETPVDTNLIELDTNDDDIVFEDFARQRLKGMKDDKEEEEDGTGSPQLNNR
SMILES,EC50 (Aorta [1]) [nM],EC50 [2] [nM],Emax (HEK293 [3]) [%],EC50 (Beta-arrestin-1 [4]) [nM],Emax at 1 µM (Aorta [5]) [%],EC50 [6] [nM],Emax at 1 µM (Aorta [7]) [%],Emax (Beta-arrestin-1 [9]) [%],EC50 [10] [nM],Emax (HEK293 [11]; filed as agonist) [%],EC50 (Aorta [12]) [nM],Emax [13] [%],Emax (HEK293 [15]) [%],Activity [17],EC50 [18] [nM],EC50 [19] [nM],other results
NCCCCN1N=C(/C=C/c2ccc(O)cc2)c2ccc(C(=O)NCCCc3ccccc3)cc2N(Cc2ccc(-c3ccccc3)cc2)C1=O,1.55,1170,104,851,123,16.2,161,108,> 10000,75,14.5,,,,,,Emax [8]: 26%
CC(C)[C@H](NC(=O)[C@@H]1CSSC[C@H](NC(=O)[C@H](CC(=O)O)NC(=O)[C@@H]2CCCN2C(=O)[C@@H](NC(=O)[C@@H](N)CCC(=O)O)[C@@H](C)O)C(=O)N[C@@H](Cc2ccccc2)C(=O)N[C@@H](Cc2c[nH]c3ccccc23)C(=O)N[C@@H](CCCCN)C(=O)N[C@@H](Cc2ccc(O)cc2)C(=O)N1)C(=O)O [UROTENSIN-II],,18.2,,20.4,,16.2,,,13.8,,,,,,,,
NCCCCN1N=C(/C=C/c2ccc(O)cc2)c2ccc(C(=O)NCC(c3ccccc3)c3ccccc3)cc2N(Cc2ccc(-c3ccccc3)cc2)C1=O,44.7,,198,95.5,77,200,56,76,,,5.5,103,83,inactive,25.1,6.92,Activity (HEK293 [14]): inactive; Emax (HEK293 [16]): 89%; EC50 [20]: 102 nM; EC50 [21]: 53.7 nM; Emax (HEK293 [22]): 95%
CC(C)[C@H](NC(=O)[C@@H]1CSSC[C@H](NC(=O)[C@H](C)N)C(=O)N[C@@H](Cc2ccccc2)C(=O)N[C@@H](Cc2c[nH]c3ccccc23)C(=O)N[C@@H](CCCCN)C(=O)N[C@@H](Cc2ccc(O)cc2)C(=O)N1)C(=O)O,,,,,,,,,8.91,,,,,,,,Emax ([8]; filed as agonist): 101%
COc1ccc(/C=C/C2=NN(CCCCN)C(=O)N(Cc3ccc(-c4ccccc4)cc3)c3cc(C(=O)NCCCc4ccccc4)ccc32)cc1,3.72,> 10000,103,1200,252,20.9,77,98,> 10000,,0.741,,,,,,Emax ([8]; filed as agonist): 54%; Emax (HEK293 [11]): 18%
CN(Cc1ccccc1)C(=O)c1ccc2c(c1)N(Cc1ccc(-c3ccccc3)cc1)C(=O)N(CCCCN)N=C2/C=C/c1ccc(O)cc1,3.31,589,129,117,61,178,120,82,> 10000,73,0.955,,,,,,Emax [8]: 37%
COc1ccc(/C=C/C2=NN(CCCCN)C(=O)N(Cc3ccc(-c4ccccc4)cc3)c3cc(C(=O)NCc4ccccc4)ccc32)cc1,8.13,,122,9.33,85,81.3,27,98,,,0.661,79,90,inactive,43.7,13.2,Activity (HEK293 [14]): inactive; Emax (HEK293 [16]): 63%; EC50 [20]: 148 nM; EC50 [21]: 11.7 nM; Emax (HEK293 [22]): 80%
NCCCCN1N=C(/C=C/c2ccc(O)cc2)c2ccc(C(=O)NCc3ccccc3)cc2N(Cc2ccc(-c3ccccc3)cc2)C1=O,13.5,> 10000,115,1230,121,10.5,58,275,,,1.1,111,85,inactive,17,7.08,Emax (HEK293 [11]): 30%
NCCCCN1N=C(CCc2ccc(O)cc2)c2ccc(C(=O)NCCOc3ccccc3)cc2N(Cc2ccc(-c3ccccc3)cc2)C1=O,16.2,> 10000,215,1780,197,288,83,198,,51,6.17,81,95,inactive,34.7,6.92,
NCCCCN1N=C(CCc2ccc(O)cc2)c2ccc(C(=O)NCCCc3ccccc3)cc2N(Cc2ccc(-c3ccccc3)cc2)C1=O,4.07,> 10000,119,174,143,21.9,112,165,,45,1.02,76,65,inactive,18.6,5.89,
